The text below walks through data of PubChem BioAssay AID1259407 (Chemical Carcinogenesis Research Information System (CCRIS), 2018).

Molecules are shown by their SMILES. Activity calls are given as the source filed them. The rule behind the calls is not given here.

The test system of this series is CCRIS mutagenicity, Ames/micronucleus/aberration tests. The series is described as follows: CCRIS mutagenicity studies.
[1] abbreviates: Test System: AMES SALMONELLA TYPHIMURIUM, Strain/Indicator: TA98, Metabolic Activation: NONE, Method: PREINCUBATION
The mark [2] stands for this setting: Test System: AMES SALMONELLA TYPHIMURIUM, Strain/Indicator: TA100, Metabolic Activation: NONE, Method: PREINCUBATION

For `O=C1OC(O)C(C(Cl)Cl)=C1Cl` (stereo not drawn), the mutagenic call runs as follows: (Test System: AMES SALMONELLA TYPHIMURIUM, Strain/Indicator: RSJ100, Metabolic Activation: NONE, Method: PREINCUBATION) “inactive; negative”; (Test System: AMES SALMONELLA TYPHIMURIUM, Strain/Indicator: RSJ100, Metabolic Activation: RAT LIVER S-9, Method: PREINCUBATION) “inactive; negative”; (Test System: AMES SALMONELLA TYPHIMURIUM, Strain/Indicator: TA92, Metabolic Activation: NONE, Method: STANDARD PLATE) “active; positive”; (Test System: AMES SALMONELLA TYPHIMURIUM, Strain/Indicator: TA97, Metabolic Activation: NONE, Method: STANDARD PLATE) “active; positive”; under setting [1], “active; positive”; (Test System: AMES SALMONELLA TYPHIMURIUM, Strain/Indicator: TA98, Metabolic Activation: NONE, Method: STANDARD PLATE) “active; positive”. The mutagenic call is “inactive; negative” (Test System: AMES SALMONELLA TYPHIMURIUM, Strain/Indicator: TA98, Metabolic Activation: RAT LIVER S-9, AROCLOR 1254, Method: STANDARD PLATE); “active; positive” (Test System: AMES SALMONELLA TYPHIMURIUM, Strain/Indicator: TA98, Metabolic Activation: RAT LIVER S-9, Method: PREINCUBATION); “inactive; negative” (Test System: AMES SALMONELLA TYPHIMURIUM, Strain/Indicator: TA98, Metabolic Activation: RAT, LIVER, S-9, PHENOBARBITAL AND 5,6-BENZOFLAVONE, Method: PREINCUBATION); “active; positive” under setting [2]; “inactive; negative” (Test System: AMES SALMONELLA TYPHIMURIUM, Strain/Indicator: TA100, Metabolic Activation: RAT LIVER S-9, AROCLOR 1254, Method: STANDARD PLATE); “inactive; negative” (Test System: AMES SALMONELLA TYPHIMURIUM, Strain/Indicator: TA100, Metabolic Activation: RAT LIVER S-9, Method: PREINCUBATION). The mutagenic call is “active; positive” (Test System: AMES SALMONELLA TYPHIMURIUM, Strain/Indicator: TA100, Metabolic Activation: RAT, LIVER, S-9, AROCLOR 1254, Method: STANDARD PLATE); “inactive; negative” (Test System: AMES SALMONELLA TYPHIMURIUM, Strain/Indicator: TA100, Metabolic Activation: RAT, LIVER, S-9, PHENOBARBITAL AND 5,6-BENZOFLAVONE, Method: PREINCUBATION); “active; positive” (Test System: AMES SALMONELLA TYPHIMURIUM, Strain/Indicator: TA102, Metabolic Activation: NONE, Method: STANDARD PLATE); “active; positive” (Test System: AMES SALMONELLA TYPHIMURIUM, Strain/Indicator: TA1535, Metabolic Activation: NONE, Method: STANDARD PLATE); “active; positive” (Test System: AMES SALMONELLA TYPHIMURIUM, Strain/Indicator: TA1538, Metabolic Activation: NONE, Method: STANDARD PLATE); “active; positive” (Test System: AMES SALMONELLA TYPHIMURIUM, Strain/Indicator: YG7112, Metabolic Activation: NONE, Method: PREINCUBATION). Further, the mutagenic call is, setting by setting: (Test System: AMES SALMONELLA TYPHIMURIUM, Strain/Indicator: YG7113, Metabolic Activation: NONE, Method: PREINCUBATION) “active; positive”; (Test System: AMES SALMONELLA TYPHIMURIUM, Strain/Indicator: YG7119, Metabolic Activation: NONE, Method: PREINCUBATION) “active; positive”; (Test System: Ames Salmonella typhimurium, Strain/Indicator: TA100, Metabolic Activation: None, Method: Preincubation) “active; positive”; (Test System: Ames Salmonella typhimurium, Strain/Indicator: TA104, Metabolic Activation: None, Method: Plate incorporation) “active; positive”; (Test System: Ames Salmonella typhimurium, Strain/Indicator: TA1975P, Metabolic Activation: None, Method: Preincubation) “active; positive (at higher doses)”; (Test System: CHINESE HAMSTER OVARY, Strain/Indicator: CHO-KTL3 (HPRT)/6-THIOGUANINE, Metabolic Activation: NONE) “active; positive”. Moreover, the mutagenic call (Test System: CHINESE HAMSTER V-79, Strain/Indicator: V-79 (HGPRT), Metabolic Activation: NONE) was “inactive; negative”; the mutagenic call (Test System: E. COLI, Strain/Indicator: CL101P, Metabolic Activation: NONE, Method: PREINCUBATION) was “active; positive”; the mutagenic call (Test System: E. COLI, Strain/Indicator: CL102P, Metabolic Activation: NONE, Method: PREINCUBATION) was “active; positive”; the mutagenic call (Test System: E. COLI, Strain/Indicator: CL103P, Metabolic Activation: NONE, Method: PREINCUBATION) was “active; positive”; the mutagenic call (Test System: E. COLI, Strain/Indicator: CL104P, Metabolic Activation: NONE, Method: PREINCUBATION) was “active; positive”; the mutagenic call (Test System: E. COLI, Strain/Indicator: CL105P, Metabolic Activation: NONE, Method: PREINCUBATION) is “active; positive”. Also, the mutagenic call reads like this: (Test System: E. COLI, Strain/Indicator: CL106P, Metabolic Activation: NONE, Method: PREINCUBATION) “inactive; negative”; (Test System: E. COLI, Strain/Indicator: WP2, Metabolic Activation: NONE, Method: PREINCUBATION) “inactive; negative”; (Test System: E. COLI, Strain/Indicator: WP2 UVRA, Metabolic Activation: NONE, Method: PREINCUBATION) “active; positive”; (Test System: E. coli, Strain/Indicator: XL-1 Blue MRA P2 (Spi), Method: Standard plate) “inactive; negative”; (Test System: E. coli, Strain/Indicator: YG6020 (Gpt)/6-Thioguanine, Method: Standard plate) “inactive; negative”; (Test System: HUMAN H1A1V2 CELLS, Strain/Indicator: TK LOCUS, Metabolic Activation: NONE, Method: SUSPENSION/PLATE) “active; positive”. Besides, the mutagenic call (Test System: HUMAN LYMPHOBLASTOID CELLS, Strain/Indicator: AHH-1 CELLS (TK+/TK-), Metabolic Activation: NONE, Method: SUSPENSION/PLATE) was “active; positive”; the mutagenic call (Test System: HUMAN LYMPHOBLASTOID CELLS, Strain/Indicator: MCL-5 CELLS (TK+/TK-), Metabolic Activation: NONE, Method: SUSPENSION/PLATE) was “active; positive”; the mutagenic call (Test System: MOUSE LYMPHOMA, Strain/Indicator: L5178Y (TK+/TK-), Metabolic Activation: NONE, Method: SUSPENSION/PLATE) was “active; positive”; the mutagenic call (Test System: UDS HUMAN HEPATOCYTES, Strain/Indicator: THY INCORP, Metabolic Activation: NONE, Method: AUTORADIOGRAPHY) is “active; positive”; the mutagenic call (Test System: UDS MOUSE HEPATOCYTES, Strain/Indicator: THY INCORP, Metabolic Activation: IN VIVO, Method: AUTORADIOGRAPHY) was “inactive; negative”; the mutagenic call (Test System: UDS MOUSE HEPATOCYTES, Strain/Indicator: THY INCORP, Metabolic Activation: NONE, Method: AUTORADIOGRAPHY) is “active; positive”. Moreover, the mutagenic call (Test System: UDS RAT HEPATOCYTES, Strain/Indicator: THY INCORP, Metabolic Activation: NONE, Method: AUTORADIOGRAPHY) is “active; positive” and the mutagenic call (Test System: UDS RAT HEPATOCYTES, Strain/Indicator: THYMIDINE INCORPORATION, Metabolic Activation: NONE, Method: AUTORADIOGRAPHY) was “active; positive”.

In the case of `CN(N=O)C(CCC(=O)O)c1cccnc1` (stereo not drawn), the mutagenic call (Test System: UDS RODENT HEPATOCYTES, Metabolic Activation: NONE) is “inactive; negative”.

For the compound `CCC(=O)Nc1snc2ccccc12`, the mutagenic call is “inactive; negative” (Test System: AMES SALMONELLA TYPHIMURIUM, Strain/Indicator: TA100, Metabolic Activation: NONE, Method: STANDARD PLATE); “inactive; negative” (Test System: AMES SALMONELLA TYPHIMURIUM, Strain/Indicator: TA100, Metabolic Activation: S-9, Method: STANDARD PLATE); “inactive; negative” (Test System: AMES SALMONELLA TYPHIMURIUM, Strain/Indicator: TA1537, Metabolic Activation: NONE, Method: STANDARD PLATE); “inactive; negative” (Test System: AMES SALMONELLA TYPHIMURIUM, Strain/Indicator: TA1537, Metabolic Activation: S-9, Method: STANDARD PLATE).

As to `COc1nncc2ncccc12`, the mutagenic call under setting [1] was “inactive; negative”; the mutagenic call (Test System: AMES SALMONELLA TYPHIMURIUM, Strain/Indicator: TA98, Metabolic Activation: RAT, LIVER, S-9, PCB, Method: PREINCUBATION) is “inactive; negative”; the mutagenic call under setting [2] was “inactive; negative”; the mutagenic call (Test System: AMES SALMONELLA TYPHIMURIUM, Strain/Indicator: TA100, Metabolic Activation: RAT, LIVER, S-9, PCB, Method: PREINCUBATION) is “inactive; negative”.
